Assay results published in patent US20200010457A1, “TETRAHYDROPYRAN AND TETRAHYDROTHIOPYRAN AMIDE DERIVATIVES HAVING MULTIMODAL ACTIVITY AGAINST PAIN” (ESTEVE PHARMACEUTICALS, S.A., priority 2016, published 2020).

Each molecule was assayed on human σ1 receptor and human μ-opioid receptor (assay: Human σ1 receptor ([3H](+)-pentazocine) and human μ-opioid receptor ([3H]-DAMGO) radioligand assays, reported as one combined score). Conditions: combined class for Ki-σ1 (transfected HEK-293 membranes) and Ki-μ (transfected CHO-K1 cell membranes).
Format: binding
Parameters: key to σ1 and μ binding: +: Both Ki-μ and Ki-σ1>=1000 nM; ++: One Ki<1000 nM while the other Ki is >=1000 nM; +++: Both Ki-μ and Ki-σ1<1000 nM; ++++: Both Ki-μ and Ki-σ1<500 nM
Experimental: Human σ1 Receptor Radioligand Assay
To investigate binding properties of test compounds to human σ1 receptor, transfected HEK-293 membranes and [^3H](+)-pentazocine (Perkin Elmer, NET-1056), as the radioligand, were used. The assay was carried out with 7 μg of membrane suspension, 5 nM of [^3H](+)-pentazocine in either absence or presence of either buffer or 10 μM Haloperidol for total and non-specific binding, respectively. Binding buffer contained Tris-HCl 50 mM at pH 8. Plates were incubated at 37° C. for 120 minutes. After the incubation period, the reaction mix was then transferred to MultiScreen HTS, FC plates (Millipore), filtered and plates were washed 3 times with ice-cold 10 mM TrisHCL (pH7.4). Filters were dried and counted at approximately 40% efficiency in a MicroBeta scintillation counter (Perkin-Elmer) using EcoScint liquid scintillation cocktail.
Preferably, transfected HEK-293 membranes (7 μg) were incubated with 5 nM of [^3H](+)-pentazocine in assay buffer containing Tris-HCl 50 mM at pH 8. NBS (non-specific binding) was measured by adding 10 μM Haloperidol. The binding of the test compound was measured at five different concentrations. Plates were incubated at 37° C. for 120 minutes. After the incubation period, the reaction mix was then transferred to MultiScreen HTS, FC plates (Millipore), filtered and plates were washed 3 times with ice-cold 10 mM TrisHCL (pH7.4). Filters were dried and counted at approximately 40% efficiency in a MicroBeta scintillation counter (Perkin-Elmer) using EcoScint liquid scintillation cocktail.
Human μ-Opioid Receptor Radioligand Assay
To investigate binding properties of test compounds to human μ-opioid receptor, transfected CHO-K1 cell membranes and [^3H]-DAMGO (Perkin Elmer, ES-542-C), as the radioligand, were used. The assay was carried out with 20 μg of membrane suspension, 1 nM of [^3H]-DAMGO in either absence or presence of either buffer or 10 μM Naloxone for total and non-specific binding, respectively. Binding buffer contained Tris-HCl 50 mM, MgCl2 5 mM at pH 7.4. Plates were incubated at 27° C. for 60 minutes. After the incubation period, the reaction mix was then transferred to MultiScreen HTS, FC plates (Millipore), filtered and plates were washed 3 times with ice-cold 10 mM TrisHCL (pH 7.4). Filters were dried and counted at approximately 40% efficiency in a MicroBeta scintillation counter (Perkin-Elmer) using EcoScint liquid scintillation cocktail.
Preferably, transfected CHO-K1 cell membranes (20 μg) were incubated with 1 nM of [^3H]-DAMGO in assay buffer containing Tris-HCl 50 mM, MgCl2 5 mM at pH 7.4. NBS (non-specific binding) was measured by adding 10 μM Naloxone. The binding of the test compound was measured at five different concentrations. Plates were incubated at 27° C. for 60 minutes. After the incubation period, the reaction mix was then transferred to MultiScreen HTS, FC plates (Millipore), filtered and plates were washed 3 times with ice-cold 10 mM TrisHCL (pH 7.4). Filters were dried and counted at approximately 40% efficiency in a MicroBeta scintillation counter (Perkin-Elmer) using EcoScint liquid scintillation cocktail.
With `CCC(=O)N(CC1(CCCNCC(C)C)CCOCC1)c1cccc(C(F)(F)F)n1` [Example 5, N-((4-(3-(Isobutylamino)propyl)tetrahydro-2H-pyran-4-yl)methyl)-N-(6-(trifluoromethyl)pyridin-2-yl)propionamide] the “σ1 and μ binding” value was “++”.
In the case of `CCOCCN(C)CCN(C)C1(CN(C(=O)CC)c2cccc(C(F)(F)F)n2)CCOCC1` [Example 4, N-((4-((2-((2-Ethoxyethyl)(methyl)amino)ethyl)(methyl)amino)tetrahydro-2H-pyran-4-yl)methyl)-N-(6-(trifluoromethyl)pyridin-2-yl)propionamide], the “σ1 and μ binding” value is reported as “++”.
For `CCC(=O)N(CC1(N(C)CCNCC(C)C)CCOCC1)c1cccc(C(F)(F)F)n1` [Example 3, N-((4-((2-(Isobutylamino)ethyl)(methyl)amino)tetrahydro-2H-pyran-4-yl)methyl)-N-(6-(trifluoromethyl)pyridin-2-yl)propionamide], the “σ1 and μ binding” value was “++”.
For `CCC(=O)N(CC1(CCCN(C)CC(C)C)CCOCC1)c1cccc(C(F)(F)F)n1` [Example 8, N-((4-(3-(isobutyl(methyl)amino)propyl)tetrahydro-2H-pyran-4-yl)methyl)-N-(6-(trifluoromethyl)pyridin-2-yl)propionamide], the “σ1 and μ binding” value was “++”.
For `CCC(=O)N(CC1(N(C)CCN(C)Cc2ccccc2)CCOCC1)c1cccc(C(F)(F)F)n1` [Example 2, N-((4-((2-(benzyl(methyl)amino)ethyl)(methyl)amino)tetrahydro-2H-pyran-4-yl)methyl)-N-(6-(trifluoromethyl)pyridin-2-yl)propionamide], the “σ1 and μ binding” value was “++”.

Same assay, conditions: combined class for Ki-σ1 (transfected HEK-293 membranes) and Ki-μ (transfected CHO-K1 cell membranes); read-out: σ1 and μ binding
`CCC(=O)N(CC1(N(C)CCN(Cc2ccccc2)CC(C)C)CCOCC1)c1cccc(C(F)(F)F)n1` [Example 1, N-((4-((2-(Benzyl(isobutyl)amino)ethyl)(methyl)amino)tetrahydro-2H-pyran-4-yl)methyl)-N-(6-(trifluoromethyl)pyridin-2-yl)propionamide] gave a Ki of no less than 1000 nM.
`CCOCCN(C)CCCC1(CN(C(=O)CC)c2cccc(C(F)(F)F)n2)CCOCC1` [Example 9, N-((4-(3-((2-ethoxyethyl)(methyl)amino)propyl)tetrahydro-2H-pyran-4-yl)methyl)-N-(6-(trifluoromethyl)pyridin-2-yl)propionamide] was tested, and the Ki was no less than 1000 nM.
`CCOCCNCCCC1(CN(C(=O)CC)c2cccc(C(F)(F)F)n2)CCOCC1` [Example 6, N-((4-(3-((2-ethoxyethyl)amino)propyl)tetrahydro-2H-pyran-4-yl)methyl)-N-(6-(trifluoromethyl)pyridin-2-yl)propionamide] showed a Ki of less than 1000 nM.
`CCC(=O)N(CC1(CCNCC(C)C)CCOCC1)c1cccc(C(F)(F)F)n1` [Example 7, N-((4-(2-(isobutylamino)ethyl)tetrahydro-2H-pyran-4-yl)methyl)-N-(6-(trifluoromethyl)pyridin-2-yl)propionamide] was tested, and the Ki was no less than 1000 nM.
